The structures appear in SMILES notation.

The text below walks through data of article PMC7614749 (Chemistry (Weinheim an der Bergstrasse, Germany), 2023).

The experiment concerns the target T1, transketolase (TK) (Zea mays, UniProt Q7SIC9).
T1 sequence (Q7SIC9 1-675): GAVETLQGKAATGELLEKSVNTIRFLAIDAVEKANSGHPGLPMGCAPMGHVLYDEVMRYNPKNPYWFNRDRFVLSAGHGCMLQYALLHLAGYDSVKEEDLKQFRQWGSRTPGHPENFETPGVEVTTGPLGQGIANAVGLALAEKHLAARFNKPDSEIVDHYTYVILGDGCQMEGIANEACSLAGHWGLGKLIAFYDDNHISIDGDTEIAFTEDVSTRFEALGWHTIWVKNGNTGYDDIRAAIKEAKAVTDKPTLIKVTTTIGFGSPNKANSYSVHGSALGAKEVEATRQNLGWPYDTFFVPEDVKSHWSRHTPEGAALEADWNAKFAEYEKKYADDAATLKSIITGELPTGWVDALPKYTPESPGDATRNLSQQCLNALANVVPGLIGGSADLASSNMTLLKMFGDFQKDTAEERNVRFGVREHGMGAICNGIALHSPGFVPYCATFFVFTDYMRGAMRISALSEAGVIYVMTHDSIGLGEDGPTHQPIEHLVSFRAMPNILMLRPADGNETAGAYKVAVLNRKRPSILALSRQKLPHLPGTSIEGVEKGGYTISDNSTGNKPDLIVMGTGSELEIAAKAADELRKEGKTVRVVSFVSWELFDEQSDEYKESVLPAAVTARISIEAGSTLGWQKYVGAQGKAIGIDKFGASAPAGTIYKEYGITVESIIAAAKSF
The experiment in a line: in vitro dose-response enzymatic activity assay. It counts as biochemical. The following applies: read-out: enzymatic assay / IC50.

Take `C/C=C1/CC2=C(C(=O)OC2=O)[C@H](CCC)[C@H](O)C(=O)C[C@@H]1O` [compound 6, cornexistin]: the IC50 is 50 ± 5 µM.
